The target of the first experiment is recombinant USP30 (amino acids 57-517 of the human sequence) (Homo sapiens (Human), UniProt Q70CQ3). As to the kind of experiment: In vitro USP30 biochemical assay (Ubiquitin-Rhodamine substrate). The note with it: 1.5 nM recombinant USP30, 25 nM Ubiquitin-Rhodamine, fluorescence. How it is done: In vitro biochemical assay to establish the potency of compounds for USP30 inhibition: a 384-well plate assay using a fluorophore tagged substrate of USP30 was used for in vitro screening of compounds. Each compound was tested at
recombinant USP30 (amino acids 57-517 of the human sequence), sequence (Q70CQ3 57-517): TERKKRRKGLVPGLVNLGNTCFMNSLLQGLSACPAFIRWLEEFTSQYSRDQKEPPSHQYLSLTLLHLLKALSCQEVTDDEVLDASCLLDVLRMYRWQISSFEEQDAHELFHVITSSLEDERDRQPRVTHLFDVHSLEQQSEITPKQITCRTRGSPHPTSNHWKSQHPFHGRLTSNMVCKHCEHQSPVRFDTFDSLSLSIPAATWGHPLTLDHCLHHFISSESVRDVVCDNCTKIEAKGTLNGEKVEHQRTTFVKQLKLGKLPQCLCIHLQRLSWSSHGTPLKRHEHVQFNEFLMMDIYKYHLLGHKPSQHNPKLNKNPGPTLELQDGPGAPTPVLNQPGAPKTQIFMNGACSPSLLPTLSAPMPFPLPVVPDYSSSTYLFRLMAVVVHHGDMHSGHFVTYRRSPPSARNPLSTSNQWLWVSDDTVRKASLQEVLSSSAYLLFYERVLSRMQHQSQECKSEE
10 different concentrations (0.5 to 10,000 nM) in duplicate wells. […] Data were analyzed using Graph Pad Prism software with a four-parameter (floating slope) fit to log concentration data to determine IC50s.
With `CC(C)(C)NS(=O)(=O)c1ccc(-c2nc([C@H](Cc3ccccc3)NC(=O)c3ccc(F)cc3)n[nH]2)cc1` (stereo in doubt) [Compound I-55, N-(1-(5-(4-(N-(tert-butyl)sulfamoyl)phenyl)-1H-1,2,4-triazol-3-yl)-2-phenylethyl)-4-fluorobenzamide], the IC50 lay within 1 to 10 µM. The same measure, in the same setting: under `CC(C)(C)NS(=O)(=O)c1ccc(NC(=O)[C@H](Cc2ccccc2)c2nnc(-c3ccc(F)cc3)o2)cc1` (stereo in doubt) [Compound I-56, N-(4-(N-(tert-butyl)sulfamoyl)phenyl)-2-(5-(4-fluorophenyl)-1,3,4-oxadiazol-2-yl)-3-phenylpropanamide] stands 1 to 10 µM; under `O=C(N[C@@H](CC1CCOCC1)C(=O)Nc1ccc(S(=O)(=O)NC2COC2)nc1)c1ccc(F)cc1` [Compound I-5], 0.05 to 1 µM. On to `COCCC(C)(C)NS(=O)(=O)c1ccc(NC(=O)[C@H](CC2CCOCC2)NC(=O)c2ccc(F)cc2)cc1` [Compound I-7], for which the IC50 was 0.05 to 1 µM. With `CCNS(=O)(=O)c1cccc2c(NC(=O)[C@H](CC3CCOCC3)NC(=O)c3ccc(F)cc3)cccc12` [Compound I-9], the IC50 was 0.05 to 1 µM. On the same count and under the same terms, the figure for `O=C(N[C@@H](CC1CCOCC1)C(=O)Nc1cccc2c(S(=O)(=O)NC3COC3)cccc12)c1ccc(F)cc1` [Compound I-10] is 1 to 10 µM; for `COc1cc(NC(=O)[C@H](CC(C)C)NC(=O)c2ccc(F)cc2)ccc1S(=O)(=O)NC(C)(C)C` [Compound I-13] it is 0.05 to 1 µM. For the molecule `COc1cc(NC(=O)[C@H](CC(C)C)NC(=O)c2ccc(F)cc2)ccc1S(=O)(=O)NC(C)(C)CO` [Compound I-14], the IC50 was 0.05 to 1 µM. For `COc1cc(NC(=O)[C@H](CC(C)C)NC(=O)c2ccc(F)cc2)cnc1S(=O)(=O)NC(C)(C)C` [Compound I-15], the IC50 was 0.05 to 1 µM. Same read-out and setting: under `CC(C)C[C@H](NC(=O)c1ccc(F)cc1)C(=O)Nc1ccc(S(=O)(=O)NC(C)(C)CO)nc1` [Compound I-17] stands 0.05 to 1 µM. On the same count and under the same terms, under `COCCC(C)(C)NS(=O)(=O)c1ccc(NC(=O)[C@H](CC(C)C)NC(=O)c2ccc(F)cc2)cc1` [Compound I-18] stands 0.05 to 1 µM. The same measure, in the same setting: the figure for `COCCC(C)(C)NS(=O)(=O)c1ccc(NC(=O)[C@@H](CC(C)C)NC(=O)c2ccc(F)cc2)cc1` [Compound I-19] is 1 to 10 µM; for `CC(C)C[C@H](NC(=O)c1ccc(F)cc1)C(=O)Nc1ccc(S(=O)(=O)NC2COC2)cc1` [Compound I-22] it is 0.05 to 1 µM. Regarding `CC(C)CC[C@H](NC(=O)c1ccc(F)cc1)C(=O)Nc1ccc(S(=O)(=O)NC2COC2)cc1` [Compound I-24], the IC50 is 0.05 to 1 µM.

Turning to `CC(C)(C)C[C@H](NC(=O)c1ccc(F)cc1)C(=O)Nc1ccc(S(=O)(=O)NC(C)(C)C)cc1` [Compound I-25], the IC50 lay within 0.05 to 1 µM. Take `COCC[C@H](NC(=O)c1ccc(F)cc1)C(=O)Nc1ccc(S(=O)(=O)NC(C)(C)CO)cc1` [Compound I-26]: the IC50 was 0.05 to 1 µM.

Regarding `COCC[C@H](NC(=O)c1ccc(F)cc1)C(=O)Nc1ccc(S(=O)(=O)NC(C)(C)CN2CCOCC2)cc1` [Compound I-27], the IC50 lay in the range of 1 to 10 µM. Consider `COCC[C@H](NC(=O)c1ccc(F)cc1)C(=O)Nc1ccc(S(=O)(=O)NC2COC2)cc1` [Compound I-28], for which the IC50 was 1 to 10 µM. With `CC(C)(CO)NS(=O)(=O)c1ccc(NC(=O)[C@H](CCO)NC(=O)c2ccc(F)cc2)cc1` [Compound I-29], the IC50 lay in the range of 1 to 10 µM.

In the case of `CC(C)(CN1CCOCC1)NS(=O)(=O)c1ccc(NC(=O)[C@H](CCO)NC(=O)c2ccc(F)cc2)cc1` [Compound I-30], the IC50 is 1 to 10 µM.

For `O=C(N[C@@H](CCO)C(=O)Nc1ccc(S(=O)(=O)NC2COC2)cc1)c1ccc(F)cc1` [Compound I-31], the IC50 was 1 to 10 µM. As to `COC[C@H](NC(=O)c1ccc(F)cc1)C(=O)Nc1ccc(S(=O)(=O)NC(C)(C)CO)cc1` [Compound I-32], the IC50 fell in the range of 1 to 10 µM.

On to `COC[C@H](NC(=O)c1ccc(F)cc1)C(=O)Nc1ccc(S(=O)(=O)NC(C)(C)CN2CCOCC2)cc1` [Compound I-33], for which the IC50 was in the range of 1 to 10 µM. The same measure, in the same setting: the figure for `COC[C@H](NC(=O)c1ccc(F)cc1)C(=O)Nc1ccc(S(=O)(=O)NC2COC2)cc1` [Compound I-34] is 1 to 10 µM; for `CC(C)(CO)NS(=O)(=O)c1ccc(NC(=O)[C@H](CO)NC(=O)c2ccc(F)cc2)cc1` [Compound I-35] it is 1 to 10 µM; for `CC(C)(C)NS(=O)(=O)c1ccc(NC(=O)[C@H](CC2COC2)NC(=O)c2ccc(F)cc2)cc1` [Compound I-38, (S)—N-(1-((4-(N-(tert-butyl)sulfamoyl)phenyl)amino)-3-(oxetan-3-yl)-1-oxopropan-2-yl)-4-fluorobenzamide] it is 0.05 to 1 µM. As for `CC(C)(C)NS(=O)(=O)c1ccc(NC(=O)[C@H](CC2CCNCC2)NC(=O)c2ccc(F)cc2)cc1` [Compound I-40, (S)—N-(1-((4-(N-(tert-butyl)sulfamoyl)phenyl)amino)-1-oxo-3-(piperidin-4-yl)propan-2-yl)-4-fluorobenzamide], the IC50 fell in the range of 0.05 to 1 µM.

Take `CC(C)(C)NS(=O)(=O)c1ccc(NC(=O)[C@H](CC2CCN(C(=O)OCc3ccccc3)CC2)NC(=O)c2ccc(F)cc2)cc1` [Compound I-43, benzyl (S)-4-(3-((4-(N-(tert-butyl)sulfamoyl)phenyl)amino)-2-(4-fluorobenzamido)-3-oxopropyl)piperidine-1-carboxylate]: the IC50 was 0.05 to 1 µM. The same measure, in the same setting: the figure for `CN1CCC(C[C@H](NC(=O)c2ccc(F)cc2)C(=O)Nc2ccc(S(=O)(=O)NC(C)(C)CO)cc2)CC1` [Compound I-44] is 0.05 to 1 µM; for `CCN1CCC(C[C@H](NC(=O)c2ccc(F)cc2)C(=O)Nc2ccc(S(=O)(=O)NC(C)(C)CO)cc2)CC1` [Compound I-45] it is 0.05 to 1 µM. Still for that read-out and setting: under `CC(C)(CO)NS(=O)(=O)c1ccc(NC(=O)[C@H](CC2CC2)NC(=O)c2ccc(F)cc2)cc1` [Compound I-46] stands 0.05 to 1 µM; under `CC(C)(CN1CCOCC1)NS(=O)(=O)c1ccc(NC(=O)[C@H](CC2CC2)NC(=O)c2ccc(F)cc2)cc1` [Compound I-47], 0.05 to 1 µM. Take `O=C(N[C@@H](CC1CC1)C(=O)Nc1ccc(S(=O)(=O)NC2COC2)cc1)c1ccc(F)cc1` [Compound I-48]: the IC50 was 1 to 10 µM.

For `CC(C)(C)NS(=O)(=O)c1ccc(NC(=O)[C@@H]2C[C@@H](c3ccccc3)CN2C(=O)c2ccc(F)cc2)cc1` [Compound I-49, (2S,4S)—N-(4-(N-(tert-butyl)sulfamoyl)phenyl)-1-(4-fluorobenzoyl)-4-phenylpyrrolidine-2-carboxamide], the IC50 was 0.05 to 1 µM. For `CC(C)(C)NS(=O)(=O)c1ccc(NC(=O)[C@@H]2CCCN2C(=O)c2ccc(F)cc2)cc1` [Compound I-50, (S)—N-(4-(N-tert-butylsulfamoyl)phenyl)-1-(4-fluorobenzoyl)pyrrolidine-2-carboxamide], the IC50 is 1 to 10 µM. On the same count and under the same terms, under `CC(C)(CO)NS(=O)(=O)c1ccc(NC(=O)[C@@H](NC(=O)c2ccc(F)cc2)C2CC2)cc1` [Compound I-52] stands 1 to 10 µM; under `CC(C)(CN1CCOCC1)NS(=O)(=O)c1ccc(NC(=O)[C@@H](NC(=O)c2ccc(F)cc2)C2CC2)cc1` [Compound I-53], 1 to 10 µM; under `O=C(N[C@H](C(=O)Nc1ccc(S(=O)(=O)NC2COC2)cc1)C1CC1)c1ccc(F)cc1` [Compound I-54, (S)—N-(1-cyclopropyl-2-((4-(N-(oxetan-3-yl)sulfamoyl)phenyl)amino)-2-oxoethyl)-4-fluorobenzamide], 1 to 10 µM.

Staying with this experiment, now noted: […] recombinant USP30, 25 nM Ubiquitin-Rhodamine, fluorescence.
Take `COc1cc(NC(=O)[C@H](CC2CCOCC2)NC(=O)c2ccc(F)cc2)ccc1S(=O)(=O)NC(C)(C)C` [Compound I-2, (S)—N-(1-((4-(N-(tert-butyl)sulfamoyl)-3-methoxyphenyl)amino)-1-oxo-3-(tetrahydro-2H-pyran-4-yl)propan-2-yl)-4-fluorobenzamide]: the IC50 was < 0.05 µM.

On to `CC(C)(C)NS(=O)(=O)c1ccc(NC(=O)[C@H](CC2CCOCC2)NC(=O)c2ccc(F)cc2)cn1` [Compound I-4], for which the half-maximal inhibitory concentration (IC50) is < 0.05 µM. Regarding `CC(C)(CCO)NS(=O)(=O)c1ccc(NC(=O)[C@H](CC2CCOCC2)NC(=O)c2ccc(F)cc2)cc1` [Compound I-6], the IC50 is < 0.05 µM.

Regarding `CC(C)(C)NS(=O)(=O)c1cccc2c(NC(=O)[C@H](CC3CCOCC3)NC(=O)c3ccc(F)cc3)cccc12` [Compound I-8, (S)—N-(1-((5-(N-(tert-butyl)sulfamoyl)naphthalen-1-yl)amino)-1-oxo-3-(tetrahydro-2H-pyran-4-yl)propan-2-yl)-4-fluorobenzamide], the IC50 is < 0.05 µM. Still for that read-out and setting: under `CC(C)C[C@@H](NC(=O)c1ccc(F)cc1)C(=O)Nc1ccc(S(=O)(=O)NC(C)(C)C)cc1` [Compound I-12] stands > 10 µM; under `CC(C)C[C@H](NC(=O)c1ccc(F)cc1)C(=O)Nc1ccc(S(=O)(=O)NC(C)(C)C)nc1` [Compound I-16], < 0.05 µM.

Consider `CC(C)C[C@@H](NC(=O)c1ccc(F)cc1)C(=O)Nc1ccc(S(=O)(=O)NC(C)(C)CCO)cc1` [Compound I-21, (R)-4-fluoro-N-(1-((4-(N-(4-hydroxy-2-methylbutan-2-yl)sulfamoyl)phenyl)amino)-4-methyl-1-oxopentan-2-yl)benzamide], for which the IC50 is > 10 µM. The same measure, in the same setting: the figure for `CC(C)(CN1CCOCC1)NS(=O)(=O)c1ccc(NC(=O)[C@H](CO)NC(=O)c2ccc(F)cc2)cc1` [Compound I-36, (S)-4-fluoro-N-(3-hydroxy-1-((4-(N-(2-methyl-1-morpholinopropan-2-yl)sulfamoyl)phenyl)amino)-1-oxopropan-2-yl)benzamide] is > 10 µM; for `CC(C)(C)NS(=O)(=O)c1ccc(NC(=O)[C@@H](CC2COC2)NC(=O)c2ccc(F)cc2)cc1` [Compound I-39, (R)—N-(1-((4-(N-(tert-butyl)sulfamoyl)phenyl)amino)-3-(oxetan-3-yl)-1-oxopropan-2-yl)-4-fluorobenzamide] it is > 10 µM.

One may read the IC50 as the concentration at which inhibition is half-maximal.
